Source: US20110105382A1, “CALMODULIN-BINDING PEPTIDES THAT REDUCE CELL PROLIFERATION IN CANCER AND SMOOTH MUSCLE PROLIFERATION DISEASES” (priority 2007, published 2011)
Where no end group is shown, it is not given here.

Key:
[1] = system: primary mouse aortic SMC; format: cell-based; conditions: for proliferation of primary mouse aortic SMC (MTT), TAT-fused peptides: 100 μM, MTT after 2 days
Method: (§1) Cell culture conditions The isolation and culture of primary mouse aortic VSMC have was performed according to methods previously described (Afroze T, Yang L L, Wang C, Gros R, Kalair W, Hogue A N, Mungrue I N, Zhu Z, Husain M. Calcineurin-independent regulation of plasma membrane Ca2+ ATPase-4 in the vascular smooth muscle cell cycle. Am J Physiol Cell Physiol. July 2003; 285(1):C88-95). VSMCs were grown in DMEM (GIBCO/BRL, Gaithersburg, Md.) supplemented with 10% FBS (Hyclone, Logan, Utah), 50 ng/mL platelet-derived growth factor (PDGF, Sigma) and 1% penicillin-streptomycin (GIBCO/BRL). For serum starvation, cells were grown to 60% to 70% confluence, washed twice with PBS, and cultured in starvation medium (0.25% FBS-supplemented DMEM) for 72 hours to achieve Go arrest. Progression to G1/S was brought about by stimulation with 10% FBS and 50 ng/mL PDGF for 24 hours. Cells and reagents for primary human aortic VSMC culture were purchased from Cascade Biologics. Human VSMC(C-007-5C) were grown in Medium 231 with Smooth Muscle Growth Supplement (SMGS) S-007-25 and 1% penicillin-streptomycin (GIBCO/BRL). Cyclin E1/E2 double knockout mouse embryonic fibroblasts (MEF) were kindly provided by Dr. P. Sicinski (Harvard Medical School), and maintained in DMEM with 10% FBS (Hyclone) and 1% penicillin-streptomycin (GIBCO/BRL). Go arrest of MEF was achieved by starvation for 48 h in medium lacking FBS. Mouse embryonic fibroblasts (MEF) were maintained for normal culture in 10% FBS-supplemented DMEM. For the starvation of MEF, cells were cultured in starvation medium without FBS for 48 hours to achieve Go arrest. HeLa (human cervical cancer cell), Saos-2 (human osteosarcoma cell) and A549 (human lung cancer cell) were cultured in 10% FBS-supplemented DMEM.
(§2) MTT colorimetric survival assay. Active mitochondria of living cells can cleave MTT to produce formazan, the amount of which is directly proportional to the number of living cells. Cell survival was assessed (Denizot, 1986). Cells in 96-well plate were washed two times with PBS followed by 4 hr of incubation at 37° C. with 1 mg/ml of MTT (in phenol red free DMEM supplemented with 2 mM of L-glutamine & 1 mM of sodium pyruvate) in a reaction volume of 100 μl. After removing MTT solution, DMSO was added to dissolve formazan crystals. Plate was shaken for 5 min at 55° C. for complete dissolve. Dye absorbance in viable cells was measured at 570 nm with 630 nm as a reference wavelength. All experiments were repeated at least 3 times, and each experimental condition was repeated in at least quadruplicate wells in each experiment.
(§3) Nucleofection. For peptides delivery via Nucleofector technology, 1×10^6 cells were harvested, resuspended in 100 μl of Nucleofector solution (for VSMC: Cat. No. VPI-1004; for MEF: Cat. No.: VPD-1005, both provided by Amaxa GmBH, Köln, Germany) and mixed with 100 nmole (in 10 μl) of each peptide. The cell solution was transferred into a kit-provided cuvette and positioned into a Nucleofector device. Subsequently, the transfection was performed with a single pulse using the preprogrammed nucleofection program (A-33 for VSMC; T-20 for MEF) according to the manufacturer's recommendation. Following nucleofection, the cells were transferred into 96-well plate (2K or 5K cells per well for MTT assay) or T25 culture flasks (for FACS analysis) containing pre-warmed stem cell medium using kit-provided plastic pipettes to prevent cell damage and the cells were cultured at 37° C. in 5% CO2.

[2] = biological target: T1, cyclin E/CDK2 (Mus musculus, UniProt P0DP26); test: Histone H1 in vitro kinase assay; format: biochemical; conditions: G1/S-synchronized mouse VSMC, each peptide 100 μM
T1 construct: endogenous in cells; host or cells: primary mouse aortic VSMC (G1/S-synchronized), immunoprecipitated complexes
Method: Immunoprecipitation and kinase assays. 5×10^6 SMC were harvested and re-suspended with 2 ml of lysis buffer (50 mM Tris (pH 7.4), 250 mM NaCl, 5 mM EDTA, 0.1% NP-40, 0.5 mM DTT, 0.1 mM Na3VO4, 5 μg/ml leupeptin, 5 μg/ml aprotinin, 2 mM PMSF, and 10% glycerol). After homogenization, cell lysates were clarified by centrifugation at 12×10^3 rpm, 4° C. for 30 min, and the supernatant was collected. An aliquot was taken for protein concentration determination using the BCA protein assay kit (Sigma). Cell extracts (200 μg) were then incubated for 2 hr at 4° C. with saturating concentrations of polyclonal antibodies (Abs). […]
For the in vitro kinase assays, 20 μl of kinase reaction mixture (20 mM Tris (pH 7.4), 5 mM MgCl2, 2.5 mM MnCl2, 1 mM DTT, 10 μg of C-terminal of human Rb protein (Upstate Biotech.) or 4 μg of histone-H1 (Upstate Biotech.) as substrates, 13 μM ATP, and 2.4 μCi [γ-^32P]ATP (Amersham Pharmacia)) was added to CDK2-, cyclin E-, or cyclin A-immunoprecipitated (IPd) complexes after removing the washing buffer from GammaBind™ G Sepharose resin. Based on the total calcium content of kinase reaction mixtures (as determined by inductively coupled plasma atomic emission spectrometry), amounts of EGTA required to yield final concentrations of free Ca^2+ ion (0, 100 or 500 nM) were calculated by WinMaxC (http://www.stanford.edu/˜cpatton/winmaxc2.html). […]

[3] = system: primary mouse aortic SMC; test: Lactate dehydrogenase (LDH) cytotoxicity assay; format: cell-based; conditions: nucleofection, 1 mM, asynchronized cells
Method: Lactate dehydrogenase (LDH) assay. To measure the level of cytotoxicity, LDH based in vitro toxicology assay kit (Sigma, Cat. No.: TOX-7) was used (Legrand, 1992). After nucleofection of peptides, 10^6 cells were grown on 24-well plate in the presence of phenol red free DMEM. 3 days later, 500 μl of cell culture media was collected from each well for assay followed by centrifugation (12,000 rpm, 30 min, at 4° C.) to remove any cell debris completely. Subsequent procedures for enzymatic assay were performed according to manufacture's protocol.
as §3, with “Following nucleofection, the cells were transferred into 96-well plate (2K or 5K cells per well for MTT assay) or T25 culture flasks (for FACS analysis) containing pre-warmed stem cell medium using kit-provided plastic pipettes to prevent cell damage and the cells were cultured at 37° C. in 5% CO2.” left out

[4] = system: Saos-2 (human osteosarcoma); test: MTT proliferation assay, Saos-2; format: cell-based; conditions: 100 μM, MTT after 2 days
Method: as §1, §2

[5] = system: HeLa (human cervical cancer cell); test: MTT proliferation assay, HeLa; format: cell-based; conditions: 100 μM, MTT after 2 days
Method: as §1, §2

[6] = system: A549 (human lung cancer cell); test: MTT proliferation assay, A549; format: cell-based; conditions: 100 μM, MTT after 2 days
Method: as §1, §2

[7] = system: mouse carotid artery injury model; test: Mouse carotid artery injury model (wire denudation); format: in vivo; conditions: truncated peptides, arteries harvested 14 days following injury
Method: Injury of mouse carotid arteries (wire denudation) and local administration of CBS peptide. The mice (8-12 weeks, 20-25 g) were anesthetized with i.p. Ketamine (100 mg/kg, MTC Pharmaceuticals, Cambridge, ON, Canada) and Xylazine (10 mg/kg, Bayer Inc., Etobicoke, ON, Canada). Surgical procedures were performed under a dissecting microscope (MZ6 Leica, Heerbrugg, Switzerland). The left carotid artery was exposed via a midline incision on the ventral side of the neck. The bifurcation of the carotid artery was located and two ligatures were placed around the external carotid artery. This vessel was then tied off with the distal ligature. […] An incision hole is made between the two ligatures of external carotid artery, through which the denudation device is introduced. This device consists of a curved flexible copper wire (0.3 mm diameter) which is passed down to the common carotid artery, and under rotation, passed along this segment four times. The wire was then removed, and the external carotid artery was tied off proximal to the incision hole with the proximal ligature. […]
Tissue processing and analysis. […] Images were analyzed by planimetry using Image J software. […] Medial mass was calculated subtracting the luminal from whole area. […]

[8] = system: primary human aortic VSMC; test: 3H-thymidine incorporation assay, human aortic VSMC; format: cell-based; conditions: 10 and 100 μM for 1.0 h, 72 h after treatment
Method: Cell culture conditions The isolation and culture of primary mouse aortic VSMC have was performed according to methods previously described (Afroze T, Yang L L, Wang C, Gros R, Kalair W, Hogue A N, Mungrue I N, Zhu Z, Husain M. Calcineurin-independent regulation of plasma membrane Ca2+ ATPase-4 in the vascular smooth muscle cell cycle. Am J Physiol Cell Physiol. July 2003; 285(1):C88-95). VSMCs were grown in DMEM (GIBCO/BRL, Gaithersburg, Md.) supplemented with 10% FBS (Hyclone, Logan, Utah), 50 ng/mL platelet-derived growth factor (PDGF, Sigma) and 1% penicillin-streptomycin (GIBCO/BRL). For serum starvation, cells were grown to 60% to 70% confluence, washed twice with PBS, and cultured in starvation medium (0.25% FBS-supplemented DMEM) for 72 hours to achieve Go arrest. Progression to G1/S was brought about by stimulation with 10% FBS and 50 ng/mL PDGF for 24 hours. Cells and reagents for primary human aortic VSMC culture were purchased from Cascade Biologics. […]
^3H-thymidine incorporation proliferation assay. […] Cells were grown at 37° C. and analyzed at 24, 48 and 72 h after ^3H-thymidine exposure. […] Solubilized contents of wells were removed and added to 2.5 ml of scintillation fluid (ReadySafe™ Cocktail, Beckman Coulter, Product No. 141349). Radioactivity was measured in a scintillation counter (Beckman Coulter, LS 6500).

FAFGRQVNKARSEKALGVSDRT [scrambled, reference compound]
proliferation of primary mouse aortic SMC (MTT) ([1]; peptide delivered via nucleofection): no effect

GGAEFSARSRKRKANVTVFLQD [CBS]
inhibition of in vitro cyclin E/CDK2 activity [2]: 40%
maximum level of inhibition of VSMC proliferation [1]: 50%
cell death (LDH assay) [3]: did not cause any increase in cell death

RRRQRRKKRG [TAT domain, reference compound]
proliferation of Saos-2 cells (MTT) [4]: no anti-proliferative effect
proliferation of HeLa cells (MTT) [5]: no anti-proliferative effect
proliferation of primary mouse aortic SMC (MTT), TAT-fused peptides [1]: no anti-proliferative effect
proliferation of A549 cells (MTT) [6]: no anti-proliferative effect

RRRQRRKKRGAEFSARSRKRKANVTVFL (N-terminal TAT peptide; listed as Homo sapiens) [TAT-SEQ ID NO:2 (#3-20)]
proliferation of Saos-2 cells (MTT) [4]: most powerfully and efficiently
proliferation of HeLa cells (MTT) [5]: most powerfully and efficiently
anti-proliferative effect on the site of injury (media mass, I/M ratio) [7]: anti-proliferative effect
proliferation of primary mouse aortic SMC (MTT), TAT-fused peptides [1]: most powerfully and efficiently
proliferation of A549 cells (MTT) [6]: most powerfully and efficiently

RRRQRRKKRGEFSARSRKRKANVTVF (N-terminal TAT peptide; listed as Homo sapiens) [TAT-SEQ ID NO:2 (#4-19)]
proliferation of Saos-2 cells (MTT) [4]: started to lose its proliferative function
proliferation of HeLa cells (MTT) [5]: started to lose its proliferative function
proliferation of primary mouse aortic SMC (MTT), TAT-fused peptides [1]: started to lose its proliferative function
proliferation of A549 cells (MTT) [6]: started to lose its proliferative function

RRRQRRKKRGVDIDQARLKMLGQTRPHDDDDC [TAT-NC, reference compound]
3H-thymidine incorporation (S-phase entry), human aortic VSMC [8]: not

RRRQRRKKRGVTVFL (N-terminal TAT cell-penetrating peptide; listed as Homo sapiens) [TAT-SEQ ID NO:2(#16-20)]
anti-proliferative effect on the site of injury (media mass, I/M ratio) [7]: anti-proliferative effect
